DBAASP
≈ marks a conversion by molar mass, not a printed value.

Legend:
Assay in all cases: ≥ marks a high value that may be exact or a test limit, other limits are often not marked, values filed in µg/mL are converted to µM
Pseudomonas aeruginosa = test system: Pseudomonas aeruginosa
[1] = test system: Klebsiella pneumoniae ATCC 700603
Acinetobacter baumannii = test system: Acinetobacter baumannii
[2] = test system: Pseudomonas aeruginosa ATCC 9027
[3] = test system: Staphylococcus aureus ATCC 25923
[4] = test system: Escherichia coli ATCC 25922
Staphylococcus aureus = test system: Staphylococcus aureus
Escherichia coli = test system: Escherichia coli
Candida albicans = test system: Candida albicans
[5] = test system: Pseudomonas aeruginosa ATCC 27853
[6] = test system: Acinetobacter baumannii ATCC 19606

MIC (Pseudomonas aeruginosa) | MIC (Acinetobacter baumannii) | MIC [3] | MIC [4] | MIC (Staphylococcus aureus) | MIC (Escherichia coli) | MIC (Candida albicans) | Structure (SMILES) | other results
2.09 µM (≈ 4 µg/mL) |  |  |  |  |  |  | CSCC[C@H](NC(=O)[C@@H](NC(=O)[C@H](CCCN=C(N)N)NC(=O)[C@H](Cc1ccccc1)NC(=O)[C@H](C)NC(=O)[C@H](C)NC(=O)[C@H](CCCCN)NC(=O)[C@H](CCCN=C(N)N)NC(=O)[C@H](Cc1c[nH]c2ccccc12)NC(=O)[C@H](C)NC(=O)[C@@H]1CCCN1C(=O)[C@@H](N)CCCN=C(N)N)C(C)C)C(=O)N[C@@H](CCCN=C(N)N)C(=O)N[C@@H](C)C(=O)N[C@@H](CS)C(=O)N[C@H](C(N)=O)C(C)C [RPAWRKAAFRVMRACV] | 
 | 25 µM (≈ 42.5 µg/mL) | > 25 µM | > 25 µM |  |  |  | CC[C@H](C)[C@H](NC(=O)[C@H](Cc1c[nH]c2ccccc12)NC(=O)[C@H](CCCCN)NC(=O)[C@@H](NC(=O)[C@H](CC(C)C)NC(=O)[C@H](CO)NC(=O)[C@H](CCCCN)NC(=O)CN)C(C)C)C(=O)N[C@H](C(=O)N[C@@H](CCCCN)C(=O)N[C@@H](CO)C(=O)N[C@H](C(=O)N[C@@H](CCCN=C(N)N)C(=O)N[C@@H](CCCCN)C(=O)N[C@@H](C)C(N)=O)C(C)C)C(C)C [GKSLVKWIVKSVRKA] | MIC [1]: > 25 µM; MIC [2]: > 25 µM
7.49 µM (≈ 16 µg/mL) |  |  |  | 7.49 µM (≈ 16 µg/mL) | 3.74 µM (≈ 8 µg/mL) |  | CC(C)C[C@H](NC(=O)CNC(=O)[C@H](C)NC(=O)[C@H](CC(C)C)NC(=O)[C@H](CCCCN)NC(=O)[C@H](CCCCN)NC(=O)[C@H](C)NC(=O)[C@H](CC(C)C)NC(=O)CNC(=O)[C@H](C)NC(=O)[C@H](Cc1c[nH]c2ccccc12)NC(=O)[C@H](CCCCN)NC(=O)[C@H](CCCCN)NC(=O)[C@H](C)NC(=O)[C@H](CC(C)C)NC(=O)CNC(=O)[C@H](C)NC(=O)[C@H](CC(C)C)NC(=O)[C@@H](N)CCCCN)C(=O)N[C@@H](C)C(=O)N[C@@H](CCCCN)C(N)=O [KLAGLAKKWAGLAKKLAGLAK] | 
 |  |  |  | 6.58 µM (≈ 16 µg/mL) | 26.3 µM (≈ 64 µg/mL) | 13.2 µM (≈ 32 µg/mL) | CC[C@H](C)[C@H](NC(=O)[C@H](CC(C)C)NC(=O)[C@H](Cc1cnc[nH]1)NC(=O)[C@@H](NC(=O)[C@@H](NC(=O)[C@@H](NC(=O)CNC(=O)[C@H](CC(C)C)NC(=O)[C@H](C)NC(=O)[C@H](C)NC(=O)[C@H](CCCCN)NC(=O)CNC(=O)[C@@H](NC(=O)[C@H](Cc1cnc[nH]1)NC(=O)[C@H](CCCCN)NC(=O)[C@@H](NC(=O)[C@@H](NC(=O)[C@H](CC(=O)O)NC(=O)[C@H](CC(C)C)NC(=O)[C@H](Cc1ccccc1)NC(=O)CN)C(C)C)[C@@H](C)CC)C(C)C)C(C)C)C(C)C)[C@@H](C)O)C(=O)N[C@@H](CC(N)=O)C(=O)N[C@@H](CCC(N)=O)C(N)=O [GFLDVIKHVGKAALGVVTHLINQ] | 
58.9 µM (≈ 125 µg/mL) |  | 118 µM (≈ 250 µg/mL) | 14.7 µM (≈ 31.2 µg/mL) | 118 µM (≈ 250 µg/mL) | > 236 µM | 236 µM (≈ 500 µg/mL) | CC(C)C[C@H](NC(=O)CNC(=O)[C@@H]1CCCN1C(=O)[C@H](CCCCN)NC(=O)[C@H](CCCCN)NC(=O)[C@@H]1CCCN1C(=O)[C@H](CCCN=C(N)N)NC(=O)[C@H](CC(=O)O)NC(=O)[C@@H](N)CCCCN)C(=O)N[C@@H](CS)C(=O)N1CCC[C@H]1C(=O)N[C@@H](C)C(=O)N[C@@H](C)C(=O)N[C@@H](CCCCN)C(=O)N[C@@H](CCCCN)C(=O)N[C@@H](C)C(=O)N[C@@H](C)C(=O)N[C@@H](C)C(=O)N[C@@H](C)C(=O)N[C@@H](CCCCN)C(=O)N[C@@H](C)C(N)=O [KDRPKKPGLCPAAKKAAAAKA] | MIC [5]: 29.5 µM (≈ 62.5 µg/mL)
 | 3.25 µM (≈ 10 µg/mL) |  |  |  |  |  | CC[C@H](C)[C@H](NC(=O)[C@H](CCCN=C(N)N)NC(=O)[C@@H](NC(=O)[C@@H](NC(=O)[C@@H]1CCCN1C(=O)[C@@H](NC(=O)[C@@H](NC(=O)[C@@H](NC(=O)[C@@H]1CCCN1C(=O)CNC(=O)CNC(=O)[C@H](CCCCN)NC(=O)[C@H](CCCCN)NC(=O)[C@H](Cc1c[nH]c2ccccc12)NC(=O)[C@H](C)NC(=O)[C@H](CCCN=C(N)N)NC(=O)[C@H](CC(C)C)NC(=O)[C@@H](NC(=O)[C@H](CCCCN)NC(=O)[C@H](CCCN=C(N)N)NC(=O)CNC(=O)[C@H](CC(C)C)NC(=O)[C@H](CCCCN)NC(=O)[C@H](CCCN=C(N)N)NC(=O)[C@H](CC(C)C)NC(=O)CNC(=O)[C@@H](N)CCCCN)[C@@H](C)CC)[C@@H](C)CC)[C@@H](C)CC)C(C)C)[C@@H](C)CC)[C@@H](C)CC)C(=O)O [KGLRKLGRKILRAWKKGGPIIVPIIRI] | MIC [6]: 2.3 µM (≈ 7.07 µg/mL)
 | 25 µM (≈ 42.8 µg/mL) | > 25 µM | > 25 µM |  |  |  | CC[C@H](C)[C@H](NC(=O)[C@H](CC(C)C)NC(=O)[C@H](CCC(N)=O)NC(=O)[C@@H](NC(=O)[C@H](CC(C)C)NC(=O)[C@H](CCCN=C(N)N)NC(=O)[C@H](CCCN=C(N)N)NC(=O)[C@@H](NC(=O)[C@H](C)NC(=O)[C@H](CCCCN)NC(=O)[C@H](CCCN=C(N)N)NC(=O)[C@@H](N)CC(C)C)[C@@H](C)O)C(C)C)C(=O)N[C@H](C(=O)N[C@@H](CO)C(=O)NCC(=O)O)C(C)C [LRKATRRLVQLIVSG] | MIC [1]: > 25 µM; MIC [2]: > 25 µM
 |  |  |  | > 200 µM | 200 µM (≈ 544 µg/mL) | > 200 µM | CC[C@H](C)[C@H](NC(=O)[C@H](CCCCN)NC(=O)[C@H](CS)NC(=O)[C@H](C)NC(=O)[C@@H](NC(=O)[C@H](Cc1ccccc1)NC(=O)CNC(=O)[C@H](CC(C)C)NC(=O)CNC(=O)[C@@H](NC(=O)[C@H](CCCCN)NC(=O)[C@H](CCCCN)NC(=O)[C@H](CC(C)C)NC(=O)[C@H](CC(N)=O)NC(=O)[C@H](CCCCN)NC(=O)[C@H](CC(C)C)NC(=O)[C@@H](NC(=O)[C@H](CO)NC(=O)[C@H](CC(C)C)NC(=O)[C@H](CCSC)NC(=O)[C@@H](N)CO)C(C)C)C(C)C)C(C)C)C(=O)N[C@@H](CC(N)=O)C(=O)N[C@@H](CCCCN)C(=O)N[C@@H](CCC(N)=O)C(=O)N[C@@H](CS)C(=O)O [SMLSVLKNLKKVGLGFVACKINKQC] | 
> 120 µM |  |  |  | > 120 µM | > 120 µM |  | CC(C)C[C@H](NC(=O)CNC(=O)[C@H](C)NC(=O)[C@H](CC(C)C)NC(=O)[C@H](CCCCN)NC(=O)[C@H](C)NC(=O)[C@H](CCCCN)NC(=O)[C@H](CC(C)C)NC(=O)CNC(=O)[C@H](C)NC(=O)[C@H](Cc1c[nH]c2ccccc12)NC(=O)[C@H](CCCCN)NC(=O)[C@H](C)NC(=O)[C@H](CCCCN)NC(=O)[C@H](CC(C)C)NC(=O)CNC(=O)[C@H](C)NC(=O)[C@H](CC(C)C)NC(=O)[C@@H](N)CCCCN)C(=O)N[C@@H](CCCCN)C(=O)N[C@@H](C)C(N)=O [KLAGLKAKWAGLKAKLAGLKA] | 
> 20.5 µM |  |  |  |  |  |  | CC[C@H](C)[C@H](NC(=O)[C@H](Cc1ccccc1)NC(=O)[C@H](CO)NC(=O)[C@H](CCCCN)NC(=O)[C@H](Cc1c[nH]c2ccccc12)NC(=O)[C@@H](N)CCCCN)C(=O)N[C@@H](CCCCN)C(=O)N[C@@H](CCCCN)C(=O)N[C@@H](CC(C)C)C(=O)N[C@H](C(=O)N[C@@H](CO)C(=O)N[C@@H](CCCCN)C(=O)N[C@@H](CCCCN)C(=O)N[C@@H](CC(C)C)C(=O)N[C@@H](Cc1cnc[nH]1)C(=O)N[C@@H](CO)C(=O)N[C@@H](C)C(=O)N[C@@H](CCCCN)C(=O)N[C@@H](CCCCN)C(=O)N[C@@H](Cc1ccccc1)C(N)=O)[C@@H](C)O [KWKSFIKKLTSKKLHSAKKF] | 
